Measurements reported in patent US20100204254A1, “Use of statins in the prevention and treatment of radiation injury and other disorders associated with reduced endothelial thrombomodulin” (The University of Arkansas for Medical Sciences, priority 2002, published 2010).

Assays:
[1] = tested on: thrombomodulin activity (EA.hy926 endothelial cells); test: Protein C activation assay (thrombomodulin activity); assay type: cell-based, human; set-up: concentration dependence of cell surface thrombomodulin activity: dose or concentration left out as unconfirmed; details: for effect of nitric oxide donors on thrombomodulin activity: 10 mM; for Activity (thrombomodulin, protein C activation): same treatments, mean ± SEM, method gives OD slope; for influence of enzyme inhibitors on thrombomodulin activity: data not shown
Description: (§1) TM activity was assessed by measuring protein C activation in early confluent cells grown on 96-well plates. Cells were washed twice with PBS and incubated with […] protein C and 1 nM thrombin (60 min at 37° C., […] total volume) to generate activated protein C. Excess thrombin was quenched with hirudin ([…], 0.2 ATu/ml). The amount of activated protein C generated was measured by monitoring hydrolysis of chromogenic substrate S-2366 at 5-min intervals at 405 nm in a microplate reader (Bio-TEK Instruments, Winooski, Vt.). The results were expressed as mean OD slope values (DOD/Dt).
The functional activity of thrombomodulin was assessed by measuring the ability of the endothelial cells to activate protein C. All samples and reagents were diluted in APC assay diluent (20 mM Tri-HCl, pH7.4, 100 mM NaCl, 2.5 mM CaCl2, 0.5% BSA). Exponentially growing EA.hy 926 endothelial cells were seeded into 96 well plates in triplicate (2×10^4 per well). Cells were allowed to attach and grow overnight, and then washed twice with PBS and incubated for 60 min in 60 μl total volume at 37° C. with 0.5 μM protein C and 1 nM thrombin to generate activated protein C. Excess thrombin was blocked with a superstoichiometric amount of hirudin (20 μl, 0.16 U/μl, 570 nM). Generation of active protein C was determined by using a chromogenic substrate S-2366 and absorbance at 405 nm was measured by using a Vmax kinetic microplate reader.

[2] = tested on: EA.hy926 endothelial cells; test: Apoptosis after TNF-a exposure; assay type: cell-based, human; details: atorvastatin pre-treatment, data not shown
Description: (§2) TNF-a potently downregulates endothelial thrombomodulin, an effect that is pathophysiologically significant in sepsis and related disorders. Therefore, the effect of atorvastatin on TNF-a-induced downregulation of endothelial cell thrombomodulin was examined. Exposure of EA.hy926 cells to TNF-a (1-20 ng/ml for 24 hours) caused a dose-dependent increase in apoptosis (4-fold at 10 ng/ml) and tissue factor (2.5-fold) and decreased thrombomodulin by 75% (data not shown). EA.hy926 cells were pre-treated with atorvastatin (10 μM for 30 min) before exposure to TNF-a (1 or 10 ng/ml, 24 hours).

[3] = tested on: thrombomodulin activity (human intestinal microvascular cells); test: Protein C activation assay (thrombomodulin activity); assay type: cell-based
Description: as §1

[4] = tested on: thrombomodulin protein (EA.hy926 endothelial cells); test: Western blotting of thrombomodulin protein in cell lysates; assay type: cell-based, human; details: for Protein (thrombomodulin): same treatments, untreated control = 100, mean ± SEM
Description: (§3) Cells were harvested with trypsin/EDTA and lysed in lysis buffer (10 mM Tris, pH7.4, 150 mM NaCl, 1 mM EDTA, IGPAL CA630, 1 mM PMSF). Protein concentration was measured with the BCA assay (Pierce, Rockford, Ill.). Proteins (20 μg/per lane) were resolved by NuPAGE 4-10% Bis-tris gel electrophoresis (Invitrogen, Carlsbad, Calif.) and electrotransferred onto nitrocellulose membranes. Membranes were probed with primary mouse anti-human thrombomodulin antibody (American Diagnostica), followed by application of a secondary horseradish peroxidase-conjugated (HRP) anti-mouse IgG antibody (American Diagnostica). A mouse anti-human b-actin antibody (either from Sigma or Santa Cruz Biotechnology) was used for protein loading control. HRP signals were detected with an enhanced chemiluminescence (ECL) detection system (Amersham Pharmacia Biotech). Band densities were determined from X-Ray film using SigmaGel software (Jandel Scientific, San Rafael, Calif.).
Total thrombomodulin protein in cell lysates was measured by western blotting. EA.hy926 cells were grown to early (90%+) confluence. The cells were washed with 1×PBS twice and lysed by adding 1 ml lysis buffer (10 mM Tris, pH 7.4; 150 mM NaCl; 1 mM EDTA; 1% NP-40 or IGPAL CA630; 1 mM PMSF), and the lysate was collected into eppendorf tubes. Protein concentrations were measured with the BCA protein assay kit (Pierce). Protein aliquots of each sample were mixed with 4× loading buffer, placed in a boiling water bath for 5 min, and subsequently separated by NuPAGE 4-10% Bis-tris gel electrophoresis (Invitrogen Life Technologies). The proteins were transferred to a nitrocellulose membrane, probed with primary monoclonal mouse anti-human thrombomodulin antibody at 1:1000 and secondary anti-mouse IgG-HRP antibody at 1:2000 (American Diagnostica, Inc.) using standard procedures. The HRP signal was detected using ECL detection reagents (Amersham Life Sciences) and visualized on X-ray film.

[5] = tested on: thrombomodulin mRNA (EA.hy926 endothelial cells); test: Fluorogenic probe RT-PCR, steady-state thrombomodulin mRNA; assay type: cell-based, human; set-up: concentration dependence of thrombomodulin mRNA: dose or concentration left out as unconfirmed; details: for increase in thrombomodulin transcript: 10 mM atorvastatin; for mRNA (thrombomodulin): FPP 10 μM, squalene 100 μM, GGPP 10 μM, atorvastatin 10 μM, intermediates 30 min before 24-hour atorvastatin, mean ± SEM, method gives % b-actin
Description: (§4) Steady-state TM mRNA levels were measured using quantitative real-time RT-PCR (Dr. G. Shipley, Quantitative Genomics Core Laboratory, University of Texas Health Science Center, Houston, Tex.). Human thrombomodulin and b-actin fluorogenic oligonucleotide probes and primers were designed from Genbank sequences, using Primer Express software (Applied Biosystems, Foster City, Calif.) and synthesized by Biosource International (Camarillo, Calif.). Total RNA was extracted using TRIZOL Reagent (Invitrogen, Carlsbad, Calif.) and the RNA samples were treated with RNAse-free DNAse I (Promega, Madison, Wis.). cDNA was synthesized from total RNA in 10 μl total volume, consisting of 6 μl RT master mix (Invitrogen, Carlsbad, Calif.) and a 4-μl RNA sample (30 ng/μl), using a thermocycler (MJR, Waltham, Mass.) for 30 minutes at 50° C. followed by 72° C. for 10 min. Samples were measured in triplicate. An assay-specific sDNA standard spanning a 5-log range and appropriate controls were included. Forty ml of a PCR master mix was pipetted directly onto each well of the cDNA plate utilizing a Biomek 2000 robotic workstation (Beckman, Fullerton, Calif.), and amplified (95° C. for 1 min; 40 cycles of 95° C. for 12 sec, and 60° C. for 1 min) using the 7700 Sequence Detector (Applied Biosystems). The data were normalized to b-actin and presented as molecules of TM transcript/molecules of b-actin transcript×100 (% b-actin).

[6] = tested on: cell surface thrombomodulin (EA.hy926 endothelial cells); test: Flow cytometry, cell surface thrombomodulin antigen (CD-141); assay type: cell-based, human; details: for Antigen (cell surface thrombomodulin): same treatments, mean ± SEM, method gives antibody binding sites
Description: (§5) Cells were examined for surface antigen expression by flow cytometry, using specific phycoerythrin-conjugated mouse antibodies against human TM (CD-141), a general endothelial cell marker (PECAM [CD-31]), and markers of stimulated endothelial cells (tissue factor [CD-142] and P-selectin [CD-62]) (BD Biosciences, San Diego, Calif.). Cell viability was assessed using 7-amino-actinomycin D (7-AAD). Phycoerythrin-conjugated mouse IgG was used as negative control. A total of 1×10^5 cells were used for each analysis. Cells were harvested, stained with appropriate phycoerythin-conjugated antibodies, fixed in 1% paraformaldehyde, and analysis was performed using a FACSCalibur Flow Cytometer (BD Immunocytometry System, San Jose, Calif.), QuantiBRITE-PE beads (BD Biosciences, San Diego, Calif.), and CELLQuest software. Antigen levels were expressed as antibody binding sites (ABS).

[7] = tested on: endothelial cell thrombomodulin (EA.hy926 endothelial cells); test: Thrombomodulin expression and activity overall (mRNA, protein, surface antigen, activity); assay type: cell-based, human; set-up: blocking of atorvastatin-induced thrombomodulin upregulation: dose or concentration left out as unconfirmed; details: for blocking of atorvastatin-induced thrombomodulin upregulation: 30 min pre-incubation
Description: as §4, §3, §5, §1
Statins, by inhibiting HMG-CoA reductase, reduce the formation of mevalonate (FIG. 7). […]

[8] = tested on: tissue factor (EA.hy926 endothelial cells); test: Tissue factor (CD-142) expression after TNF-a exposure; assay type: cell-based, human; details: atorvastatin pre-treatment, data not shown
Description: as §5
as §2, with “EA.hy926 cells were pre-treated with atorvastatin (10 μM for 30 min) before exposure to TNF-a (1 or 10 ng/ml, 24 hours).” left out

[9] = 24 hours, atorvastatin 0.1-15 mM
[10] = atorvastatin 10 μM for 30 min before TNF-a 1 or 10 ng/ml, 24 hours
[11] = statin before radiation, normal and irradiated cells, 24 hours after irradiation

SMILES: Cl.N=c1c[n+](N2CCOCC2)[n-]o1 [SIN-1, 3-Morpholinosydnonimine hydrochloride]
- effect of nitric oxide donors on thrombomodulin activity [1]: mimicked the effect of atorvastatin on thrombomodulin activity

SMILES: CC(C)c1c(C(=O)Nc2ccccc2)c(-c2ccccc2)c(-c2ccc(F)cc2)n1CC[C@@H](O)C[C@@H](O)CC(=O)O [atorvastatin]
- effect on TNF-a-induced apoptosis [2]: did not affect
- endothelial thrombomodulin activity (protein C activation assay) [3]: significantly affected
- increase in thrombomodulin protein ([4]; 10 mM atorvastatin, 24 hours): 2- to 3 fold
- concentration dependence of cellular thrombomodulin protein [4, 9]: prominent dose-dependent increase
- thrombomodulin protein, Western blot of cell lysates ([4]; irradiated and non-irradiated cells): prominent increase in thrombomodulin protein
- Protein (thrombomodulin) [4]: 403 ± 70
- increase in thrombomodulin transcript ([5]; 8 hours): 3 fold
- increase in thrombomodulin transcript ([5]; 24 hours): > 10 fold
- concentration dependence of thrombomodulin mRNA ([5]; 24 hours): prominent dose-dependent increase
- mRNA (thrombomodulin) [5]: 71.7 ± 8.8
- increase in TM activity (protein C activation) ([1]; 10 mM statin, 24 hours): 2- to 3 fold
- thrombomodulin activity in irradiated endothelial cells ([1]; 25 Gy single dose radiation): essentially restored normal thrombomodulin activity
- concentration dependence of cell surface thrombomodulin activity ([1]; 24 hours, different concentrations): prominent dose-dependent increase
- effect on TNF-a-induced downregulation of thrombomodulin activity [1, 10]: completely counteracted
- Activity (thrombomodulin, protein C activation) [1]: 4.1 ± 0.3
- thrombomodulin activity compared to control endothelial cells [1, 11]: significantly higher
- increase in cell surface TM antigen ([6]; 10 mM statin, 24 hours): 2- to 3 fold
- concentration dependence of cell surface thrombomodulin antigen [6, 9]: prominent dose-dependent increase
- Antigen (cell surface thrombomodulin) [6]: 146.2 ± 1.9
- thrombomodulin antigen expression compared to control endothelial cells [6, 11]: significantly higher
- levels of thrombomodulin gene expression, protein and surface expression under TNF-a [7, 10]: significantly above those of untreated control cells
- effect on TNF-a-induced tissue factor expression [8]: did not affect

SMILES: CC1(C)N([O])C(c2ccccc2)=[N+]([O-])C1(C)C [PTIO, 2-Phenyl-4,4,5,5-tetramethylimidazoline-1-oxyl 3-oxide]
- effect of NO scavenger on atorvastatin-induced increase in thrombomodulin activity ([1]; pre-incubation with 100 mM): inhibited the atorvastatin-induced increase in thrombomodulin activity

SMILES: CC(C)=CCC/C(C)=C/CC/C(C)=C/CC/C(C)=C/COP(=O)(O)OP(=O)(O)O [GGPP, geranylgeranyl-pyrophosphate]
- Protein (thrombomodulin) [4]: 124 ± 11
- mRNA (thrombomodulin) [5]: 5.4 ± 0.5
- Activity (thrombomodulin, protein C activation) [1]: 3.0 ± 0.7
- Antigen (cell surface thrombomodulin) [6]: 66.6 ± 5
- blocking of atorvastatin-induced thrombomodulin upregulation [7]: completely blocked

SMILES: CC(C)=CCC/C(C)=C/CC/C(C)=C/COP(=O)(O)OP(=O)(O)O [FPP, farnesyl-pyrophosphate]
- Protein (thrombomodulin) [4]: 94 ± 9
- mRNA (thrombomodulin) [5]: 8.2 ± 1.9
- Activity (thrombomodulin, protein C activation) [1]: 3.6 ± 0.3
- Antigen (cell surface thrombomodulin) [6]: 74.3 ± 1.1
- blocking of atorvastatin-induced thrombomodulin upregulation [7]: only partially blocked

SMILES: CC(C)=CCC/C(C)=C/CC/C(C)=C/CC/C=C(\C)CC/C=C(\C)CCC=C(C)C [Squalene, squalene]
- Protein (thrombomodulin) [4]: 147 ± 29
- mRNA (thrombomodulin) [5]: 5.9 ± 1.0
- Activity (thrombomodulin, protein C activation) [1]: 2.4 ± 0.6
- Antigen (cell surface thrombomodulin) [6]: 60.9 ± 1.9
- blocking of atorvastatin-induced thrombomodulin upregulation [7]: ineffective in blocking

SMILES: CC(O)(CCO)CC(=O)O (centres unmarked) [mevalonate, Mevalonate]
- inhibition of atorvastatin-induced thrombomodulin upregulation ([7]; 100 mM or 500 mM mevalonate 30 min prior to 24-hour): dose-dependent inhibition
- inhibition of atorvastatin-induced thrombomodulin upregulation ([7]; higher mevalonate concentration): virtually complete inhibition

SMILES: CCCN(CCCN)N(O)N=O [PAPA-NONOate, 3-(2-Hydroxy-2-nitroso-1-propylhydrazino)-1-propanamine]
- effect of nitric oxide donors on thrombomodulin activity [1]: mimicked the effect of atorvastatin on thrombomodulin activity

SMILES: COC(=O)[C@H](CC(C)C)NC(=O)c1ccc(NC[C@@H](N)CS)cc1-c1cccc2ccccc12 [GGTI-298]
- influence of enzyme inhibitors on thrombomodulin activity [1]: increasing thrombomodulin activity

SMILES: C=C(CC[C@]12O[C@H](C(=O)O)[C@@](O)(C(=O)O)[C@](C(=O)O)(O1)[C@H](OC(=O)/C=C/[C@@H](C)C[C@@H](C)CC)[C@H]2O)[C@@H](OC(C)=O)[C@H](C)Cc1ccccc1 [zaragozic acid, zaragozic acid A]
- influence of enzyme inhibitors on thrombomodulin activity [1]: no effect
